As usually defined, the IC50 is the concentration that gives 50% inhibition.

The target in the assay is T1, human CCR6 (Homo sapiens, UniProt P51684).
T1 sequence (P51684 1-374): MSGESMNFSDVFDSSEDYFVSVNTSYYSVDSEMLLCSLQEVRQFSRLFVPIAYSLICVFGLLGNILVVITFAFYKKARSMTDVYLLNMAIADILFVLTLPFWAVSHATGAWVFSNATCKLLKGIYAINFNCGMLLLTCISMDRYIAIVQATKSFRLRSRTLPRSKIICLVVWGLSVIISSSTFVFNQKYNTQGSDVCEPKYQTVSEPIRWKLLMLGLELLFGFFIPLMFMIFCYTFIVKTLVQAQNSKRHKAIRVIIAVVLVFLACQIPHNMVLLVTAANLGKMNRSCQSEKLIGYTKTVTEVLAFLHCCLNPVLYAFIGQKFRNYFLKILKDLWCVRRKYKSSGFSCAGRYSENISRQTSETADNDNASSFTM
Description: Human CCR6-CRE reporter assay. The following applies: relative -Log IC50; 293FT cells transfected with human CCR6 and CRE-luciferase reporter; 6 μM Forskolin, 6 nM CCL20; 5 h. It is filed as cell-based. Details: The second construct contained the open reading frame of human CCR6 in the pUNO1 backbone; host or cells: 293FT cells. As for the experimental part:
Human CCR6-CRE Reporter Assay
293FT cells were transfected with 2 constructs using TransIT-293 (Mirus). The first construct (pGL4.29, Promega) expressed the luciferase reporter gene luc2P in response to the binding of cAMP-induced CREB to the CREelement in its promoter. The second construct contained the open reading frame of human CCR6 in the pUNO1 backbone under the control of an enhanced CMV promoter (InVivoGen). 48 h after transfection, cells were harvested and diluted to 750,000 cells/ml in culture medium (DMEM, 10% FBS, 1× pen/strep (Gibco 15140)). Compounds were 2.5-fold serially diluted in DMSO. Further dilutions were made in assay medium (DMEM, 10% FBS, 1× pen/strep, 6 μM Forskolin, 6 nM CCL20). 4 μl of the compound solution was added to a white MW384 plate, followed by 20 μl of the cell suspension. Final DMSO concentration in the assay was 0.1%. The MW384 plate was placed in an incubator at 37° C., 5% CO2 for 5 h. Luciferase activity was determined by addition of 24 μl of a 2.5× diluted BriteLite luciferase solution (Perkin Elmer), followed by luminescence measurement using a VICTOR Plate reader (Perkin Elmer). […] The relative −Log IC50 was determined with GraphPad Prism 9 using a four-parameter dose-response model.
In general terms: Reporter assays use an easily measured gene product as a stand-in for the process of interest.
In the case of `N#Cc1cnc2ccc(-c3ccc(S(=O)(=O)N4CCC(Nc5ccc(S(F)(F)(F)(F)F)cc5)CC4)nc3)cn12` [Example 78, 6-{6-[(4-{[4-(pentafluoro-λ^6-sulfanyl)phenyl]Amino}piperidin-1-yl)sulfonyl]pyridin-3-yl}imidazo[1,2-a]pyridine-3-carbonitrile], the concentration for half-maximal inhibition (IC50) was 1580 nM.

The compound `O=S(=O)(c1ccc(-c2ccc3nccn3c2)cc1Cl)N1CCC(Nc2ccc(S(F)(F)(F)(F)F)cc2)CC1` [Example 79, 1-(2-chloro-4-{imidazo[1,2-a]pyridin-6-yl}benzenesulfonyl)-N-[4-(pentafluoro-λ^6-sulfanyl)phenyl]piperidin-4-amine] gave an IC50 of 1580 nM. Consider `N#Cc1cnc2ccc(-c3ccc(S(=O)(=O)N4CCC(Nc5ccc(S(F)(F)(F)(F)F)cc5)CC4)c(Cl)c3)cn12` [Example 80, 6-{3-chloro-4-[(4-{[4-(pentafluoro-λ^6-sulfanyl)phenyl]Amino}piperidin-1-yl)sulfonyl]phenyl}imidazo[1,2-a]pyridine-3-carbonitrile], for which 2000 nM corresponded to half-maximal inhibition (IC50). Turning to `N=S(=O)(c1ccc(-c2ccc3nccn3c2)cc1)[C@H]1CC[C@@H](Nc2ccc(S(F)(F)(F)(F)F)cc2)CC1` (stereo partly drawn) [Example 88, (4-{imidazo[1,2-a]pyridin-6-yl}phenyl)[cis-4-{[4-(pentafluoro-λ^6-sulfanyl)phenyl]Amino}cyclohexyl](imino)-λ^6-sulfanone], the IC50 is 794 nM.

`N=S(=O)(c1ccc(-c2ccn3ccnc3c2)cc1)[C@H]1CC[C@H](Nc2ccc(S(F)(F)(F)(F)F)cc2)CC1` (stereo partly drawn) [Example 93, (4-{imidazo[1,2-a]pyridin-7-yl}phenyl)[trans-4-{[4-(pentafluoro-λ^6-sulfanyl)phenyl]Amino}cyclohexyl](imino)-λ^6-sulfanone] showed an IC50 of 398 nM. Regarding `N=S(=O)(c1ccc(-c2ccn3ncnc3c2)cc1)[C@H]1CC[C@H](Nc2ccc(S(F)(F)(F)(F)F)cc2)CC1` (stereo partly drawn) [Example 94, [trans-4-{[4-(pentafluoro-λ^6-sulfanyl)phenyl]Amino}cyclohexyl](4-{[1,2,4]triazolo[1,5-a]pyridin-7-yl}phenyl)(imino)-λ^6-sulfanone], the IC50 was 501 nM.

As to `CN(C)C(=O)c1cccc(-c2ccc(S(=N)(=O)[C@H]3CC[C@H](Nc4ccc(S(F)(F)(F)(F)F)cc4)CC3)cc2)c1` (stereo partly drawn) [Example 97, N,N-dimethyl-4′-{[trans-4-{[4-(pentafluoro-λ^6-sulfanyl)phenyl]Amino}cyclohexyl]sulfonimidoyl}-[1,1′-biphenyl]-3-carboxamide], the midpoint of inhibition, the IC50, lay at 1000 nM. On to `CN(C)C(=O)c1ccc(-c2ccc(S(=N)(=O)[C@H]3CC[C@H](Nc4ccc(S(F)(F)(F)(F)F)cc4)CC3)cc2)cn1` (stereo partly drawn) [Example 100, N,N-dimethyl-5-(4-{[trans-4-{[4-(pentafluoro-λ^6-sulfanyl)phenyl]Amino}cyclohexyl]sulfonimidoyl}phenyl)pyridine-2-carboxamide], for which the midpoint of inhibition, the IC50, lay at 794 nM. In turn, `Cc1cn2cc(-c3ccc(S(=N)(=O)[C@H]4CC[C@H](Nc5ccc(S(F)(F)(F)(F)F)cc5)CC4)cc3)ncc2n1` (stereo partly drawn) [Example 103, (4-{2-methylimidazo[1,2-a]pyrazin-6-yl}phenyl)[trans-4-{[4-(pentafluoro-λ^6-sulfanyl)phenyl]Amino}cyclohexyl](imino)-λ^6-sulfanone] showed an IC50 of 1260 nM. Under `Cc1nnc2cc(-c3ccc(S(=N)(=O)[C@H]4CC[C@H](Nc5ccc(S(F)(F)(F)(F)F)cc5)CC4)cc3)ccn12` (stereo partly drawn) [Example 104, (4-{3-methyl-[1,2,4]triazolo[4,3-a]pyridin-7-yl}phenyl)[trans-4-{[4-(pentafluoro-λ^6-sulfanyl)phenyl]Amino}cyclohexyl](imino)-λ^6-sulfanone] stands 398 nM; under `CN(C)C(=O)c1ccc(-c2ccc(S(=N)(=O)[C@H]3CC[C@H](Nc4ccc(S(F)(F)(F)(F)F)cc4)CC3)cc2)nc1` (stereo partly drawn) [Example 106, N,N-dimethyl-6-(4-{[trans-4-{[4-(pentafluoro-λ^6-sulfanyl)phenyl]Amino}cyclohexyl]sulfonimidoyl}phenyl)pyridine-3-carboxamide], 1580 nM; under `CNC(=O)c1ccc(-c2ccc(S(=N)(=O)[C@H]3CC[C@H](Nc4ccc(S(F)(F)(F)(F)F)cc4)CC3)cc2)nc1` (stereo partly drawn) [Example 107, N-methyl-6-(4-{[trans-4-{[4-(pentafluoro-λ^6-sulfanyl)phenyl]Amino}cyclohexyl]sulfonimidoyl}phenyl)pyridine-3-carboxamide], 1580 nM. As for `N=S(=O)(c1ccc(-c2ccc(C(N)=O)nc2)cc1)[C@H]1CC[C@H](Nc2ccc(S(F)(F)(F)(F)F)cc2)CC1` (stereo partly drawn) [Example 108, 5-(4-{[trans-4-{[4-(pentafluoro-λ^6-sulfanyl)phenyl]Amino}cyclohexyl]sulfonimidoyl}phenyl)pyridine-2-carboxamide], half-maximal inhibition (IC50) required 501 nM. `CN(C)C(=O)c1cc(-c2ccc(S(=N)(=O)[C@H]3CC[C@H](Nc4ccc(S(F)(F)(F)(F)F)cc4)CC3)cc2)ccn1` (stereo partly drawn) [Example 109, N,N-dimethyl-4-(4-{[trans-4-{[4-(pentafluoro-λ^6-sulfanyl)phenyl]Amino}cyclohexyl]sulfonimidoyl}phenyl)pyridine-2-carboxamide] had an IC50 of 2000 nM. In turn, `CNC(=O)c1cc(-c2ccc(S(=N)(=O)[C@H]3CC[C@H](Nc4ccc(S(F)(F)(F)(F)F)cc4)CC3)cc2)ccn1` (stereo partly drawn) [Example 110, N-methyl-4-(4-{[trans-4-{[4-(pentafluoro-λ^6-sulfanyl)phenyl]Amino}cyclohexyl]sulfonimidoyl}phenyl)pyridine-2-carboxamide] showed an IC50 of 316 nM. In the case of `N=S(=O)(c1ccc(-c2ccc(C(N)=O)cn2)cc1)[C@H]1CC[C@H](Nc2ccc(S(F)(F)(F)(F)F)cc2)CC1` (stereo partly drawn) [Example 111, 6-(4-{[trans-4-{[4-(pentafluoro-λ^6-sulfanyl)phenyl]Amino}cyclohexyl]sulfonimidoyl}phenyl)pyridine-3-carboxamide] it was 1000 nM. Compound `N=S(=O)(c1ccc(-c2ccc3c(c2)CNC3=O)cc1)[C@H]1CC[C@H](Nc2ccc(S(F)(F)(F)(F)F)cc2)CC1` (stereo partly drawn) [Example 112, 5-(4-{[trans-4-{[4-(pentafluoro-λ^6-sulfanyl)phenyl]Amino}cyclohexyl]sulfonimidoyl}phenyl)-2,3-dihydro-1H-isoindol-1-one] showed an IC50 of 398 nM.

With `N=S(=O)(c1ccc(-c2ccc3c(c2)CCNC3=O)cc1)[C@H]1CC[C@H](Nc2ccc(S(F)(F)(F)(F)F)cc2)CC1` (stereo partly drawn) [Example 113, 6-(4-{[trans-4-{[4-(pentafluoro-λ^6-sulfanyl)phenyl]Amino}cyclohexyl]sulfonimidoyl}phenyl)-1,2,3,4-tetrahydroisoquinolin-1-one], the IC50 was 316 nM. In turn, `N=S(=O)(c1ccc(-c2ccc3c(c2)C(=O)NCC3)cc1)[C@H]1CC[C@H](Nc2ccc(S(F)(F)(F)(F)F)cc2)CC1` (stereo partly drawn) [Example 114, 7-(4-{[trans-4-{[4-(pentafluoro-λ^6-sulfanyl)phenyl]Amino}cyclohexyl]sulfonimidoyl}phenyl)-1,2,3,4-tetrahydroisoquinolin-1-one] gave an IC50 of 398 nM.

With `N=S(=O)(c1ccc(-c2ccc3c(c2)C(=O)NC3)cc1)[C@H]1CC[C@H](Nc2ccc(S(F)(F)(F)(F)F)cc2)CC1` (stereo partly drawn) [Example 115, 6-(4-{[trans-4-{[4-(pentafluoro-λ^6-sulfanyl)phenyl]Amino}cyclohexyl]sulfonimidoyl}phenyl)-2,3-dihydro-1H-isoindol-1-one], the midpoint of inhibition, the IC50, lay at 398 nM. Regarding `N=S(=O)(c1ccc(-c2ccc3c(c2)CC(=O)N3)cc1)[C@H]1CC[C@H](Nc2ccc(S(F)(F)(F)(F)F)cc2)CC1` (stereo partly drawn) [Example 116, 5-(4-{[trans-4-{[4-(pentafluoro-λ^6-sulfanyl)phenyl]Amino}cyclohexyl]sulfonimidoyl}phenyl)-2,3-dihydro-1H-indol-2-one], the IC50 was 200 nM. In turn, `N=S(=O)(c1ccc(-c2ccc3c(c2)NC(=O)C3)cc1)[C@H]1CC[C@H](Nc2ccc(S(F)(F)(F)(F)F)cc2)CC1` (stereo partly drawn) [Example 117, 6-(4-{[trans-4-{[4-(pentafluoro-λ^6-sulfanyl)phenyl]Amino}cyclohexyl]sulfonimidoyl}phenyl)-2,3-dihydro-1H-indol-2-one] gave an IC50 of 251 nM.
